Data published in publication PMC6838110 (Nature Communications, 2019).

Legend:
Type in all cases: cell-based
ATM = target: T1, ATM (Homo sapiens, UniProt Q13315); assay: ATM pSer1981 imaging assay in irradiated HT29 cells; conditions: geometric mean; Supplementary Table 1; read-out: Compound IC50 ATM
T1 construct: ATM (pATM Ser1981) in HT29; endogenous in cells; host or cells: HT-29
Procedure: Following this final incubation, the plates were washed twice using PBS, s ealed with black plate seals and then read on a CellInsight™ imaging platform (Thermo Scientific) with 10x objective. A two-laser setup was used to analyse nuclear staining with Hoechst (405 nm) and secondary antibody staining of pATM (488 nm). […]

DNA-PKcs = target: T2, DNA-PKcs (Homo sapiens, UniProt P78527); assay: DNA-PKcs autophosphorylation (pSer2056) ELISA in IR-treated A549 cells; conditions: geometric mean; Supplementary Table 1; read-out: Compound IC50 DNA-PKcs
T2 construct: evaluated in A549 cells following IR by measuring DNA-PKcs autophosphorylation on Ser2056; endogenous in cells; host or cells: A549

[1] = test system: secondary pharmacology target; assay: Cellular selectivity across secondary pharmacology targets; conditions: versus cellular DNA-PKcs
ATR = target: T3, ATR (Homo sapiens, UniProt Q13535); assay: ATR (pCHK1 Ser345) imaging assay in 4NQO-treated HT29 cells; conditions: geometric mean; Supplementary Table 1; read-out: Compound IC50 ATR
T3 construct: ATR (pCHK1 Ser345) in HT29; endogenous in cells; host or cells: HT-29
Procedure: HT-29 cells by an imaging-based assay. HT-29 cells were dispensed into 384-well Greiner plates (#781090) to give 6000 cells/well in a total volume of 40 µL cell media and incubated overnight. Test compounds and reference controls were dosed directly into the cell plates using a Labcyte Echo 555 acoustic dispenser. The cell plates were then incubated for 1 hour at 37°C before being dosed with 3 µM of 4NQO using a Labcyte Echo 555 acoustic dispenser. The cells were incubated for a further 1 h our and were then fixed by the addition of 20 µL 3.7% formaldehyde in PBS and incubated for 20 min utes at RT. The plates were subsequently washed on a Bioteck EL406 3x using PBS-T, and then permeabilized with the addition of 20 µL of 0.1% Triton X-100 in PBS for 10 minutes at RT. Following permeabilization, the plates were washed 3x with PBST and incubated with 20 µL of primary antibody (1:250 anti-Chk1 pSer345 in PBS-T) overnight at 4°C. The next day, the plates were washed 3x with PBS and incubated with 20 µL of secondary antibody (1:500 AlexaFluor 488 goat anti-rabbit IgG and 1:5000 Hoechst stock solution [10 mg/mL ] in antibody buffer) for 2 hours at RT. Following this final incubation, the plates were washed 3x with PBS, sealed with black plate seals and then read on a CellInsight imaging platform (Thermo Scientific) with 10x objective. A two -laser setup was used to analyse nuclear staining with Hoechst (405 nm) and secondary antibody staining of pChk1 (488 nm). […]

mTOR = target: T4, mTOR (Homo sapiens, UniProt P42345); assay: mTOR (pAKT Ser473) imaging assay in MDA-MB-468 cells; conditions: geometric mean; Supplementary Table 1; read-out: Compound IC50 mTOR
T4 construct: mTOR (pAKT Ser473) in MDA-MB-468; endogenous in cells; host or cells: MDA-MB-468

PI3Kα = PI3Kα (Homo sapiens, UniProt P42336); assay: PI3K isoform assay, pAKT Thr308 ELISA in BT474 cells; conditions: geometric mean; Supplementary Table 1; read-out: Compound IC50 PI3K (first PI3K line)
PI3Kα, sequence (P42336 187-1068 limits assumed): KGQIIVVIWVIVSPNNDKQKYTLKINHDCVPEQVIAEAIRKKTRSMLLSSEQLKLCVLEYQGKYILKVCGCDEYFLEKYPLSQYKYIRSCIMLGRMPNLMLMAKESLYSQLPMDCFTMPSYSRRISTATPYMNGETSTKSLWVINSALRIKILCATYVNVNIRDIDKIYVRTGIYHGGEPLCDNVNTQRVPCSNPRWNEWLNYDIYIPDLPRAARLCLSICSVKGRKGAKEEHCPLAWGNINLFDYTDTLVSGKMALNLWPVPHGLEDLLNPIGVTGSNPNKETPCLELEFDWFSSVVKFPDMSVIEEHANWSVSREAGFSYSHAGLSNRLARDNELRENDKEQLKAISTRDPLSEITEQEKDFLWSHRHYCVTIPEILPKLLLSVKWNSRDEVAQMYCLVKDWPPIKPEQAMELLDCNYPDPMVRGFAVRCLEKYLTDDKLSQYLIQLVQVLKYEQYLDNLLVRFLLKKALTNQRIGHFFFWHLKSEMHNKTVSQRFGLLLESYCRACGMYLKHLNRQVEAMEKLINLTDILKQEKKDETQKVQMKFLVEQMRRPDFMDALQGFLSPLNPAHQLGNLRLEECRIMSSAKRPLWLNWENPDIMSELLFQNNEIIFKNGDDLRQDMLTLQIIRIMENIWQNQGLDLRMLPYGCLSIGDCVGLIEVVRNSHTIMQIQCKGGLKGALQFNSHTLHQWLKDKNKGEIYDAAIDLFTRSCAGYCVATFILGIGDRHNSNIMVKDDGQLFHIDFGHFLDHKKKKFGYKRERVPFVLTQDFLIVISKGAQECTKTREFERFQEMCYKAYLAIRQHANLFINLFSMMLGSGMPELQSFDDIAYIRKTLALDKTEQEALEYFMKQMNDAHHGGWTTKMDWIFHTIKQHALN
Procedure: (§1) BT474 (PI3Kα), MDA-MB-468 (PI3Kβ), RAW-264 (PI3Kγ) and JEKO-1 (PI3Kδ). Levels of phospho-AKT Thr308, a downstream target for PI3K, was used as a marker of PI3K […]
(§2) BT474 and MDA -MB-468 cells were seeded into 384-well plates
(§3) (5600 cells/well) and incubated overnight prior to compound treatment for 2 hours. […]
(§4) Compounds were added to […]
(§5) cells/plates using an Echo 555 Liquid Handler (LabCyte). BT474 and MDA -MB-468 cells were lysed in 25 µL lysis buffer (25 mM Tris-HCl, 3 mM EDTA, 3 mM EGTA, 50 mM NaF, 2 mM Na3VO4, 0.27 M sucrose, 10 mM β-glycerophosphate, 5 mM Na2P2O7, 0.5% Triton […]
(§6) X-100) for 30 minutes at RT. […]
(§7) Lysates were transferred onto ELISA plates pre-coated with anti-AKT antibody (Cell Signalling #7144) that had previously been blocked with 1% BSA in PBS-T and incubated overnight at 4°C. Plates were then incubated with mouse anti-phosphoAKT Thr308 (Cell Signalling Technology #7144) for 2 hours, followed by an anti-mouse HRP-conjugated antibody (Cell Signalling Technology #7144) for 2 hours. Plates were washed between antibody incubation steps with PBS-T. QuantaBlu substrate working solution […]
(§8) (ThermoScientific #15169) was added to each well according to the manufacturer’s instructions and stop solution was added 60 minutes later. Fluorescence was measured

PI3Kγ = target: T5, PI3Kγ (Mus musculus, UniProt Q9JHG7); assay: PI3K isoform assay, pAKT Thr308 ELISA in RAW-264 cells; conditions: geometric mean; Supplementary Table 1; read-out: Compound IC50 PI3K (third PI3K line)
T5 construct: RAW-264 (PI3Kγ); endogenous in cells; host or cells: RAW-264
T5 sequence (Q9JHG7 whole entry, canonical isoform): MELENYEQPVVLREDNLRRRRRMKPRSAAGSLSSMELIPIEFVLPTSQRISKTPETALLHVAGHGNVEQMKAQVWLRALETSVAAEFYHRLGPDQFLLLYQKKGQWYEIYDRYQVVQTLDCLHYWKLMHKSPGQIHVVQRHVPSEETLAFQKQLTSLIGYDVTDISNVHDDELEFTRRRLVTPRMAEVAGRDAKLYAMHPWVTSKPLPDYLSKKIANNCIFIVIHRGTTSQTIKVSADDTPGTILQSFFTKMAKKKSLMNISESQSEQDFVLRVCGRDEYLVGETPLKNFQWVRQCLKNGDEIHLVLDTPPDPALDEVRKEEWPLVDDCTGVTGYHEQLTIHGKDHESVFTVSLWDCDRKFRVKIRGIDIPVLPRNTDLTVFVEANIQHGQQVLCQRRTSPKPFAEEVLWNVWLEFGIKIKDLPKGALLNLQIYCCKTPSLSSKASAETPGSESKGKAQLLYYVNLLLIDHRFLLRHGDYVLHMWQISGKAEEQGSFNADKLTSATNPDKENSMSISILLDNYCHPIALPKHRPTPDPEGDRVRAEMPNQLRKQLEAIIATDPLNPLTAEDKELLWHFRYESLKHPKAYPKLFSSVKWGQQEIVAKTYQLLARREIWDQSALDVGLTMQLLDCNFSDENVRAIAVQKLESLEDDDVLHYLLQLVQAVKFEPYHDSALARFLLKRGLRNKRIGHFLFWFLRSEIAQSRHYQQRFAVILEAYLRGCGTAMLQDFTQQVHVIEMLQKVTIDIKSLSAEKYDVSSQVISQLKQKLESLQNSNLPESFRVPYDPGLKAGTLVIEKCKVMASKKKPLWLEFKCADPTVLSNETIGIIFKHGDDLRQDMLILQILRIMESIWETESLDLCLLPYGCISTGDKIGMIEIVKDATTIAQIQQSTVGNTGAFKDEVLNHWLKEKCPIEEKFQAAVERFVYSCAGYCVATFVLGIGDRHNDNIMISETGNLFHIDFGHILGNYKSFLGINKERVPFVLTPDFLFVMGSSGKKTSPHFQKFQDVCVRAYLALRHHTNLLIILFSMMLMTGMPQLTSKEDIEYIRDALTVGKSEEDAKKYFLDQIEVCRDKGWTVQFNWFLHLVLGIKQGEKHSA
Procedure: as §1
RAW-264 and JEKO-1 cells were seeded directly into 384-well plates containing compounds (1 x 10^5 cells/well) and incubated for 1 hour. Compounds were added to cells/plates using an Echo 555 Liquid Handler (LabCyte). […]
as §7, with “X-100) for 30 minutes at RT. To stimulate AKT phosphorylation, C5a (complement 5a) anaphylatoxin trifluoroacetate salt (20 nM; Bachem) was added to RAW-264 cells for 3 minutes and anti-human IgM (120 µg/mL; Stratech) was added to JEKO-1 cells for 10 minutes prior to cell lysis. RAW-264 and JEKO-1 cells were then lysed for 30 minutes at RT. Lysates” for “Lysates”
as §8

PI3Kβ = target: T6, PI3Kβ (Homo sapiens, UniProt P42338); assay: PI3K isoform assay, pAKT Thr308 ELISA in MDA-MB-468 cells; conditions: geometric mean; Supplementary Table 1; read-out: Compound IC50 PI3K (second PI3K line)
T6 construct: MDA-MB-468 (PI3Kβ); endogenous in cells; host or cells: MDA-MB-468
Procedure: as §1, §2, §3, §4, §5, §6, §7, §8

PI3Kδ = target: T7, PI3Kδ (Homo sapiens, UniProt O00329); assay: PI3K isoform assay, pAKT Thr308 ELISA in JEKO-1 cells; conditions: geometric mean; Supplementary Table 1; read-out: Compound IC50 PI3K (fourth PI3K line)
T7 construct: JEKO-1 (PI3Kδ) cells; endogenous in cells; host or cells: JEKO-1
Procedure: as §1
as §5, with “RAW-264 and JEKO-1 cells were seeded directly into 384-well plates containing compounds (1 x 10^5 cells/well) and incubated for 1 hour. Compounds were added to cells/plates” for “cells/plates”
as §6
3 minutes and anti-human IgM (120 µg/mL; Stratech) was added to JEKO-1 cells for 10 minutes prior to cell lysis. RAW-264 and JEKO-1 cells were then lysed for 30 minutes at RT. Lysates were transferred onto ELISA plates pre-coated with anti-AKT antibody (Cell Signalling #7144) that had previously been blocked with 1% BSA in PBS-T and incubated overnight at 4°C. Plates were then incubated with mouse anti-phosphoAKT Thr308 (Cell Signalling Technology #7144) for 2 hours, followed by an anti-mouse HRP-conjugated antibody (Cell Signalling Technology #7144) for 2 hours. […]
as §8

T1 sequence (Q13315 whole entry): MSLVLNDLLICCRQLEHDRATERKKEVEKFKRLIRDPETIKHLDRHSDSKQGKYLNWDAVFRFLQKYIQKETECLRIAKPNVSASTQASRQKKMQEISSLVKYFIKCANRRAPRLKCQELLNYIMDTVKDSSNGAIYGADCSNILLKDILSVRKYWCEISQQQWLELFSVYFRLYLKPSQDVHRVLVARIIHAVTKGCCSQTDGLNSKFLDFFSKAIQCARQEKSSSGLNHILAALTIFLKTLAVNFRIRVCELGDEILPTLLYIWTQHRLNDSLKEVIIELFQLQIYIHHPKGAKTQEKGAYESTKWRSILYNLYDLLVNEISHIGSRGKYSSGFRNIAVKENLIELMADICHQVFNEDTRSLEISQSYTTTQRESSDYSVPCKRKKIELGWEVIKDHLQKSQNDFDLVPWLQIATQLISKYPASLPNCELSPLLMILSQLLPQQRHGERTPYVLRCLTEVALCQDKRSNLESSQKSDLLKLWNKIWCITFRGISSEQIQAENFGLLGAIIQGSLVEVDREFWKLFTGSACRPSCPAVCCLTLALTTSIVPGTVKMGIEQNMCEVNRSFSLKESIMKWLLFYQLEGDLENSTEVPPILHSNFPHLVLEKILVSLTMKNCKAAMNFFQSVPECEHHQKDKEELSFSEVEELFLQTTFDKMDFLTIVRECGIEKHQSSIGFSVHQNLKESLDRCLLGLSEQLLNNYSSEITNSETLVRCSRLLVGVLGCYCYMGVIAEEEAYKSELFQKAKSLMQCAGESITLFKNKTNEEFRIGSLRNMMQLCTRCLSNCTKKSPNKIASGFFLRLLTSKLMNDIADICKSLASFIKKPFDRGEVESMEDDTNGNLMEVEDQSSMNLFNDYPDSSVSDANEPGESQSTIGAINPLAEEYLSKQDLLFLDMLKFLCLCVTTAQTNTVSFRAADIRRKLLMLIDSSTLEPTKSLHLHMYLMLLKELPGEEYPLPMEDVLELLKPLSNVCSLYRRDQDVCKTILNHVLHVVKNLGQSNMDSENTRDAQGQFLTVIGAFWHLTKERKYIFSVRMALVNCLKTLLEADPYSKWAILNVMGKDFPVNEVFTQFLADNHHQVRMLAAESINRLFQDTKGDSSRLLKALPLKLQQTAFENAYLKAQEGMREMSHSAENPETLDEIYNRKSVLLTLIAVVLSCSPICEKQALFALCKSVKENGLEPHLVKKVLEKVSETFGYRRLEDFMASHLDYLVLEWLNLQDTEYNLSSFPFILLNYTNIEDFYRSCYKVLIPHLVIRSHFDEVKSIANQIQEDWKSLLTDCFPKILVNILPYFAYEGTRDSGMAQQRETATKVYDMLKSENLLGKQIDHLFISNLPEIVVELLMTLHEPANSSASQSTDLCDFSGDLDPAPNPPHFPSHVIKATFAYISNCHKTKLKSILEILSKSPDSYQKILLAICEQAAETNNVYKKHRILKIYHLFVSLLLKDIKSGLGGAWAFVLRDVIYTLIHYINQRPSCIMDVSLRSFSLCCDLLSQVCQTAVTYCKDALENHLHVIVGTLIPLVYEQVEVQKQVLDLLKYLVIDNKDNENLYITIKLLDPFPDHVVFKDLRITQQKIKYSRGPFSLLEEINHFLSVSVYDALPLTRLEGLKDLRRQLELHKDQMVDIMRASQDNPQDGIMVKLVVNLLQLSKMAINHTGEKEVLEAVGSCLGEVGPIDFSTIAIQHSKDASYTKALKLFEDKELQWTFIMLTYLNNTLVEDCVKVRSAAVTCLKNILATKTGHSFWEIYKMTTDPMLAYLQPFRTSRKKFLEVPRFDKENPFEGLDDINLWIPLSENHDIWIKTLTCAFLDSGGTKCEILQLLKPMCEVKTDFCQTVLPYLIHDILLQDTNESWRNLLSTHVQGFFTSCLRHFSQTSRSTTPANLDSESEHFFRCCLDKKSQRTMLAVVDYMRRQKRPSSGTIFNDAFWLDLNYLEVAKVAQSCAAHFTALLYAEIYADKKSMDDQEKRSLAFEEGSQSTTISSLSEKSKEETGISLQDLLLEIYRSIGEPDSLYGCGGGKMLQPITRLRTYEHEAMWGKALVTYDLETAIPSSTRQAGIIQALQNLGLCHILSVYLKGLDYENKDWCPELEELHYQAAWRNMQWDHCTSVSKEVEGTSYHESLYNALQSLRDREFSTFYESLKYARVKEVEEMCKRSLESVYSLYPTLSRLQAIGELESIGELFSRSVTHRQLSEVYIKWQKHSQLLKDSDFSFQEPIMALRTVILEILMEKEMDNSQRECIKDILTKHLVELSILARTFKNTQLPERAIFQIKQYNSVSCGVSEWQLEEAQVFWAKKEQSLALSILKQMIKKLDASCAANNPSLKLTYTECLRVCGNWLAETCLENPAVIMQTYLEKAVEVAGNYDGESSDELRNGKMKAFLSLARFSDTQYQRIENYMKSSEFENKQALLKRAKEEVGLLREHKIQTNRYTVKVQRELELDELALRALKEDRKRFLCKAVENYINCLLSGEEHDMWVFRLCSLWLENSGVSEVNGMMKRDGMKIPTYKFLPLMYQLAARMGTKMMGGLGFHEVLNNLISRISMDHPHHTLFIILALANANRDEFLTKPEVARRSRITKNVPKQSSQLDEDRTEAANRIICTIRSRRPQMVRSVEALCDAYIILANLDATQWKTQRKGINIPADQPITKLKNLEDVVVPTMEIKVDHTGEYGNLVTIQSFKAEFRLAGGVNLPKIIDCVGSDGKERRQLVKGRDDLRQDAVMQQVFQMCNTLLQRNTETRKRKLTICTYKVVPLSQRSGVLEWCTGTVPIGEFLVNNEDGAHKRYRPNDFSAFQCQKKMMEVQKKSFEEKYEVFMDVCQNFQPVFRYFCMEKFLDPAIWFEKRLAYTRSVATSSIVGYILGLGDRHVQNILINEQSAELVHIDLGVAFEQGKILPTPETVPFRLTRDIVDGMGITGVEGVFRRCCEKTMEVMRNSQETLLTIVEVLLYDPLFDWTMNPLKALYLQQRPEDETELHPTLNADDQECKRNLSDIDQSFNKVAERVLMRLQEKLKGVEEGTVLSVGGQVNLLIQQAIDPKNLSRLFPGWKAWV

Compound: CCN1CCN(CC(=O)Nc2ccc(-c3cccc4c(=O)cc(N5CCOCC5)oc34)c3sc4ccccc4c23)CC1 [KU-0060648]
- IC50 (ATM): > 30 µM
- IC50 (DNA-PKcs): 0.055 µM
- selectivity in at least one secondary pharmacology target [1]: < 10 fold
- IC50 (ATR): > 30 µM
- IC50 (mTOR): 0.15 µM
- IC50 (PI3Kα): 0.2 µM

Compound: COc1ccc([C@@H](O)c2cc(-c3ncnc4cc(N5CCOCC5)ccc34)c(F)cc2Cl)nn1 [M3814]
- IC50 (PI3Kγ): 1.59 µM
- IC50 (ATM): > 30 µM
- IC50 (ATR): > 30 µM

Compound: CNC(=O)c1ccnc2c([C@H](C)CNc3cc(-c4cnc(C)nc4)ncn3)cccc12 [M9831/VX-984]
- IC50 (PI3Kβ): > 30 µM
- IC50 (PI3Kγ): 7.1 µM
- IC50 (ATM): > 30 µM
- IC50 (PI3Kδ): > 30 µM
- IC50 (DNA-PKcs): 0.115 µM
- IC50 (ATR): > 30 µM
- IC50 (mTOR): > 30 µM
- IC50 (PI3Kα): > 20 µM

Compound: O=c1cc(N2CCOCC2)oc2c(-c3cccc4c3sc3ccccc34)cccc12 [NU7441]
- IC50 (ATM): > 3.1 µM
- IC50 (DNA-PKcs): 0.185 µM
- selectivity in at least one secondary pharmacology target [1]: < 10 fold
- IC50 (ATR): > 30 µM
- IC50 (mTOR): 1.8 µM
- IC50 (PI3Kα): 7.8 µM
